According to patent EP0598515A1, “Method for herbicidal activity-enhancing, activity-enhanced herbicidal composition and activity-enhancing composition” (ISHIHARA SANGYO KAISHA LTD., priority 1992, dated 1994):
Where two headings read alike, the source gives them in different places.

What was measured:
Type in all cases: in vivo
[1] = test system: Velvetleaf (Abutilon theophrasti MEDIC.); experiment: Test Example 9: pot test, Example 8 suspension concentrate with Frigate; conditions: Frigate 0.25 % by volume, Compound A 10 g/ha, 22 days after treatment, duplicate
Protocol: (§1) Velvetleaf (Abutilon theophrasti MEDIC.) and common cocklebur (Xanthium strumarium L.) seeds were sown in 1/1,000,000-hectare pots filled with upland soil and arranged in a duplicate system. When the velvetleaf plants and common cocklebur plants grew to a 2.1- and 2.3-leaf stage, respectively, the oil-based suspension concentrate obtained in Example 8 was diluted with 500 liters/hectare of water containing a predetermined amount of Frigate and was applied foliarly to the plants with a small spray gun.
(§2) Twenty two days after treatment, the growth inhibition of plants was evaluated with visual observation in the same manner as in Test Example 1 and are shown in Table 9.

[2] = test system: common cocklebur (Xanthium strumarium L.); experiment: as above; conditions: 22 days after treatment; for inhibition at 40 g/ha: Compound A 40 g/ha
Protocol: as §1, §2

[3] = test system: johnsongrass (Sorghum halepense L.); experiment: Test Example 10: pot test on rhizome plants, Example 8 suspension concentrate with Frigate; conditions: duplicate; for inhibition at 10 g/ha / inhibition at 20 g/ha / inhibition at 30 g/ha / inhibition at 40 g/ha: Sorghum halepense; for inhibition at 10 g/ha: Compound A 10 g/ha
Protocol: Rhizomes of johnsongrass (Sorghum halepense L.) induced to germinate were transplanted in 1/150,000-hectare pots filled with upland soil and arranged in a duplicate system. When the johnsongrass plants grew to a 3- to 6-leaf stage, the oil-based suspension concentrate obtained in Example 8 was diluted with 200 liters/hectare of water containing a predetermined amount of Frigate and was applied foliarly to the plants with a small spray gun.
Seventeen days and fifty six days after treatment (D.A.T.) the growth inhibition of plants was evaluated with visual observation in the same manner as in Test Example 1 and are shown in Table 10.

[4] = test system: Crabgrass (Digitaria sanginalis L.); experiment: Test Example 11: pot test, Example 8 suspension concentrate with kinds of EFAS; conditions: EFAS: No addition, 23 days after treatment, duplicate
Protocol: Crabgrass (Digitaria sanginalis L.) seeds were sown in 1/1,000,000-hectare pots filled with upland soil and arranged in a duplicate system. When the crabgrass plants grew to a 4-leaf stage, the oil-based suspension concentrate obtained in Example 8 was diluted with 200 liters/hectare of water containing a predetermined amount of an ethoxylated fatty amine type surfactant (EFAS) and was applied foliarly to the plants with a small spray gun.
Twenty three days after treatment, the growth inhibition of plants was evaluated with visual observation in the same manner as in Test Example 1 and are shown in Table 11.

COc1cc(OC)nc(NC(=O)NS(=O)(=O)c2ncccc2C(=O)N(C)C)n1 [Compound A, N-[(4,6-dimethoxypyrimidin-2-yl)aminocarbonyl]-3-dimethylaminocarbonyl-2-pyridinesulfonamide]
Growth Inhibition (%) Velvetleaf [1]: 50% | Growth Inhibition (%) Common Cocklebur ([2]; Frigate 0.25 % by volume, Compound A 10 g/ha, duplicate): 25% | Growth Inhibition (%) Common Cocklebur ([2]; Frigate: No addition, Compound A 20 g/ha, duplicate): 40% | inhibition at 10 g/ha ([2]; Xanthium strumarium, 528 h, Frigate 0.125 % by volume, Compound A 10 g/ha, duplicate, read-out: Growth Inhibition (%) Common Cocklebur): 35% | inhibition at 20 g/ha ([2]; Xanthium strumarium, 528 h, Frigate 0.125 % by volume, Compound A 20 g/ha, duplicate, read-out: Growth Inhibition (%) Common Cocklebur): 80% | inhibition at 40 g/ha ([2]; Xanthium strumarium, 528 h, Frigate 0.125 % by volume, duplicate, read-out: Growth Inhibition (%) Common Cocklebur): 100% | inhibition at 10 g/ha ([2]; Xanthium strumarium, 528 h, Frigate 0.25 % by volume, Compound A 10 g/ha, duplicate, read-out: Growth Inhibition (%) Common Cocklebur): 30% | inhibition at 20 g/ha ([2]; Xanthium strumarium, 528 h, Frigate 0.25 % by volume, Compound A 20 g/ha, duplicate, read-out: Growth Inhibition (%) Common Cocklebur): 95% | inhibition at 40 g/ha ([2]; Xanthium strumarium, 528 h, Frigate 0.25 % by volume, duplicate, read-out: Growth Inhibition (%) Common Cocklebur): 100% | inhibition at 10 g/ha ([2]; Xanthium strumarium, 528 h, Frigate 0.5 % by volume, Compound A 10 g/ha, duplicate, read-out: Growth Inhibition (%) Common Cocklebur): 60% | inhibition at 20 g/ha ([2]; Xanthium strumarium, 528 h, Frigate 0.5 % by volume, Compound A 20 g/ha, duplicate, read-out: Growth Inhibition (%) Common Cocklebur): 98% | inhibition at 40 g/ha ([2]; Xanthium strumarium, 528 h, Frigate 0.5 % by volume, read-out: Growth Inhibition (%) Common Cocklebur): 100% | inhibition at 40 g/ha ([2]; Xanthium strumarium, 528 h, Frigate: No addition, duplicate, read-out: Growth Inhibition (%) Common Cocklebur): 85% | inhibition at 50 g/ha ([2]; Xanthium strumarium, 528 h, Frigate: No addition, Compound A 50 g/ha, duplicate, read-out: Growth Inhibition (%) Common Cocklebur): 95% | inhibition at 60 g/ha ([2]; Xanthium strumarium, 528 h, Frigate: No addition, Compound A 60 g/ha, duplicate, read-out: Growth Inhibition (%) Common Cocklebur): 98% | Growth Inhibition (%) of Johnsongrass 17 D.A.T. ([3]; Frigate 0.1 % by volume, Compound A 30 g/ha, 17 days after treatment): 80% | Growth Inhibition (%) of Johnsongrass 17 D.A.T. ([3]; Frigate 0.2 % by volume, Compound A 20 g/ha, 17 days after treatment): 80% | Growth Inhibition (%) of Johnsongrass 17 D.A.T. ([3]; Frigate 0.2 % by volume, Compound A 30 g/ha, 17 days after treatment): 80% | Growth Inhibition (%) of Johnsongrass 56 D.A.T. ([3]; Frigate 0.2 % by volume, Compound A 30 g/ha, 56 days after treatment): 98% | Growth Inhibition (%) of Johnsongrass 56 D.A.T. ([3]; Frigate: No addition, Compound A 40 g/ha, 56 days after treatment): 98% | inhibition at 10 g/ha ([3]; 408 h, Frigate 0.1 % by volume, 17 days after treatment, read-out: Growth Inhibition (%) of Johnsongrass 17 D.A.T.): 65% | inhibition at 20 g/ha ([3]; 408 h, Frigate 0.1 % by volume, Compound A 20 g/ha, 17 days after treatment, read-out: Growth Inhibition (%) of Johnsongrass 17 D.A.T.): 75% | inhibition at 30 g/ha ([3]; 408 h, Frigate 0.1 % by volume, Compound A 30 g/ha, 17 days after treatment, read-out: Growth Inhibition (%) of Johnsongrass 17 D.A.T.): 75% | inhibition at 10 g/ha ([3]; 408 h, Frigate 0.2 % by volume, 17 days after treatment, read-out: Growth Inhibition (%) of Johnsongrass 17 D.A.T.): 70% | inhibition at 20 g/ha ([3]; 408 h, Frigate 0.2 % by volume, Compound A 20 g/ha, 17 days after treatment, read-out: Growth Inhibition (%) of Johnsongrass 17 D.A.T.): 75% | inhibition at 30 g/ha ([3]; 408 h, Frigate 0.2 % by volume, Compound A 30 g/ha, 17 days after treatment, read-out: Growth Inhibition (%) of Johnsongrass 17 D.A.T.): 85% | inhibition at 20 g/ha ([3]; 408 h, Frigate: No addition, Compound A 20 g/ha, 17 days after treatment, read-out: Growth Inhibition (%) of Johnsongrass 17 D.A.T.): 65% | inhibition at 30 g/ha ([3]; 408 h, Frigate: No addition, Compound A 30 g/ha, 17 days after treatment, read-out: Growth Inhibition (%) of Johnsongrass 17 D.A.T.): 60% | inhibition at 40 g/ha ([3]; 408 h, Frigate: No addition, Compound A 40 g/ha, 17 days after treatment, read-out: Growth Inhibition (%) of Johnsongrass 17 D.A.T.): 65% | inhibition at 10 g/ha ([3]; 1344 h, Frigate 0.1 % by volume, 56 days after treatment, read-out: Growth Inhibition (%) of Johnsongrass 56 D.A.T.): 100% | inhibition at 20 g/ha ([3]; 1344 h, Frigate 0.1 % by volume, Compound A 20 g/ha, 56 days after treatment, read-out: Growth Inhibition (%) of Johnsongrass 56 D.A.T.): 100% | inhibition at 30 g/ha ([3]; 1344 h, Frigate 0.1 % by volume, Compound A 30 g/ha, 56 days after treatment, read-out: Growth Inhibition (%) of Johnsongrass 56 D.A.T.): 100% | inhibition at 10 g/ha ([3]; 1344 h, Frigate 0.2 % by volume, 56 days after treatment, read-out: Growth Inhibition (%) of Johnsongrass 56 D.A.T.): 100% | inhibition at 20 g/ha ([3]; 1344 h, Frigate 0.2 % by volume, Compound A 20 g/ha, 56 days after treatment, read-out: Growth Inhibition (%) of Johnsongrass 56 D.A.T.): 100% | inhibition at 30 g/ha ([3]; 1344 h, Frigate 0.2 % by volume, Compound A 30 g/ha, 56 days after treatment, read-out: Growth Inhibition (%) of Johnsongrass 56 D.A.T.): 100% | inhibition at 20 g/ha ([3]; 1344 h, Frigate: No addition, Compound A 20 g/ha, 56 days after treatment, read-out: Growth Inhibition (%) of Johnsongrass 56 D.A.T.): 90% | inhibition at 40 g/ha ([3]; 1344 h, Frigate: No addition, Compound A 40 g/ha, 56 days after treatment, read-out: Growth Inhibition (%) of Johnsongrass 56 D.A.T.): 100% | inhibition at 10 g/ha ([4]; Digitaria, 552 h, Compound A 10 g/ha, read-out: Growth Inhibition (%) of Crabgrass): 70% | inhibition at 20 g/ha ([4]; Digitaria, 552 h, Compound A 20 g/ha, read-out: Growth Inhibition (%) of Crabgrass): 98% | inhibition at 40 g/ha ([4]; Digitaria, 552 h, Compound A 40 g/ha, read-out: Growth Inhibition (%) of Crabgrass): 98% | Growth Inhibition (%) of Crabgrass ([4]; Compound A 10 g/ha): 55% | Growth Inhibition (%) of Crabgrass ([4]; Compound A 20 g/ha): 90%
